The subject of the assay is mice model of NASH induced by MC-deficient diet. Description: MCD diet-induced NASH mice model. It counts as in vivo, C57BL/6 mice. Particulars: BxC-V37e 400 μg/head i.v. or dulaglutide 2 nmol/kg s.c., 4 weeks, FIG. 4. On the procedure:
Six-week-old C57BL/6 male wild-type mice were obtained from Koatech Co., Ltd. and fed either chow diet (n=6) or a methionine/choline-deficient (MCD) diet (n=15) for […]. Animal care and procedures were approved in the rodent animal facility area of Knotus Co., Ltd. (Korea; Approval Number: 19-KE-265). After the MCD diet was fed for 18 weeks, 2 nmol/kg dulaglutide (GLP-1 receptor agonist) was subcutaneously injected into mice every other day for 4 weeks, and 400 μg/head BxC-e and BxC-V37e were intravenously injected once a day, three times a week, for 4 weeks. At the end of the experiments, the mice were anesthetized, and their serum and liver tissues were collected. […]
Serum samples were collected 4 weeks after the initiation of BxC-V37e injection, and the following parameters were measured using a blood biochemical analyzer (7180, Hitachi, Japan): ALT (Alanine transaminase), AST (Aspartate transaminase), TG (Triglyceride), glucose, TC (total cholesterol), HDL_C (high-density lipoprotein cholesterol), LDL_C (low-density lipoprotein cholesterol), LDH (lactate dehydrogenase), and GGT (gamma-glutamyltransferase).
Liver tissues were fixed in 10% paraformaldehyde and subjected to general tissue treatment, such as cutting, dehydration, and paraffin embedding. […] Both steatosis and hypertrophy were evaluated at magnifications of 40× to 100×. […]

Experimental findings from patent US20240125801A1, “MARKER FOR DIAGNOSIS OF NONALCOHOLIC FATTY LIVER DISEASE” (BREXOGEN INC., priority 2021, published 2024) are described below.

For dulaglutide, the “entire liver morphology (colour)” value is “No difference”.
